Each block holds one compound with its values, some of them ahead of it.
Assays:
YAP [1] = target: T1, YAP (Homo sapiens, UniProt P46937); assay: YAP nuclear level / nuclear translocation in Huh-7 cells; assay type: cell-based; conditions: for nuclear transport of YAP: HCC cells (Huh-7), PRMT1 inhibitor MS023 200 nM or siPRMT1
Method: Huh-7 cells were infected with lenti-YAP-linker-EGFP-rtTA3 followed by infection with lenti-SOX9-linker-mCherry-rtTA3, with selection using puromycin (Sigma-Aldrich, P9620) or Blasticidin S hydrochloride (Yeasen,60218ES10), and then plated on confocal 6-well plates (Biosharp, BS-15-GJM) at a suitable concentration. Approximately 1 h after doxycycline (DOX, Yeasen, 60204ES03) treatment, live cell images were captured every 30 min using an Olympus SpinSR10 microscope at ×200 magnification. For the PLA, the pretreated cell samples were fixed after DOX induction for 12 h. DOX was administered to the infected Huh-7 cells at a concentration of 1 μg/mL.
(§1) Cytoplasmic and nuclear fractionation was accessed by the Minute^TM Cytoplasmic and Nuclear Fractionation kit (Invent, SC-003) following the manufacturer’s recommendations with some modifications made by us to optimize the protocol. Cells were resuspended in pre-chilled cytoplasm extraction buffer and incubated on ice for 5 min. After a thorough one-minute vortex, the supernatant (cytoplasmic proteins) was obtained by centrifuging at 12,000 rpm for 5 min. To eliminate cytoplasmic proteins, the pellet was washed with pre-chilled PBS, and subsequently resuspended in a nuclear extraction buffer. The sample was vortexed thoroughly for 3 min in an ice bath, and these steps were repeated four times. The precipitate was discarded, and the supernatant (nuclear proteins) was saved for further analysis.

YAP-TEAD = assay: 8×GTIIC YAP-TEAD luciferase reporter assay; assay type: cell-based
Method: Huh-7 cells were transfected with a vector expressing full-length or truncated SOX9 together with a TEAD4-related reporter plasmid, 8×GTIIC (RIKEN, Japan). The pRL-SV40 (Promega, E2261) vector was transfected into all the treated cells and was used to normalize the data. Luciferase reporter gene assays were assayed with the Dual-Luciferase Reporter Assay System (Promega, E2920). All experiments were replicated a minimum of three times.

SOX9 = SOX9 nuclear level in Huh-7 cells; assay type: cell-based; conditions: CDZ 5 nM, 24 h
Method: as §1

YAP-SOX9 interaction [2] = assay: Co-IP of SOX9-YAP interaction in cells; assay type: cell-based; conditions: V5-IP
Method: (§2) For protein preparation, cells were lysed in 2× sodium dodecyl sulfate (SDS) protein lysis buffer (4% SDS, 20% glycerol, 100 mM Tris-Cl [pH 6.8], with PMSF or other protease inhibitors). For co-immunoprecipitation (Co-IP), samples were prepared using Pierce^TM IP lysis buffer (Thermo Fisher Scientific, 87787) following the manufacturer's recommendations. Lysates were centrifuged at 12,000 rpm for 10 min, and the supernatants were collected. The protein concentration was determined using a BCA kit (Beyotime, P0010, Shanghai, China). For Co-IP samples, 1 mg of protein was precipitated with 20 μL of agarose-conjugated antibodies. For immunoblotting, protein samples were separated using SDS-polyacrylamide gel electrophoresis and then transferred onto nitrocellulose membranes (Millipore, HAHY00010).

YAP-SOX9 interaction [3] = assay: PLA of SOX9-YAP interaction in cells; assay type: cell-based; conditions: HCC cells (DOX-induced Huh-7), peptides 10 μM, 24 h
Method: The pretreated cell samples were grown on coverslips, fixed in 4% paraformaldehyde (PFA) for 15 minutes, and then washed two times in PBS. Following a 1-hour incubation at 37 °C with blocking solution® (Sigma-Aldrich, DUO82007), the cells were incubated with primary antibodies at optimal concentrations overnight at 4 °C. After three washes in Buffer A® (Sigma-Aldrich, DUO82049), the samples were incubated with a 1:5 dilution of PLUS® and MINUS® Duolink In Situ PLA Probe (Sigma-Aldrich, DUO92002 and DUO92004) for 1 hour at 37 °C. Three additional washes in Buffer A® preceded a 30-minute incubation with 1 unit/μL of T4 DNA ligase diluted in ligase buffer (1:5, Sigma-Aldrich, DUO92013) at 37 °C. Subsequently, cells were washed three times again in Buffer A® and treated with 5 units/μL of DNA polymerase in diluted polymerase buffer (1:5, Sigma-Aldrich, DUO92013) for 100 min at 37 °C. Finally, cells were washed twice for 10 minutes each in 1× Buffer B® (Sigma-Aldrich, DUO82049), then quickly washed for 1 min in 0.01× Buffer B®. The slides were mounted using DUOlink in situ mounting medium containing DAPI, and the images were captured using a Leica TCS SP8 confocal microscope.

CTGF, CYR61 and AREG = assay: qPCR of YAP-target genes in cells; assay type: cell-based; conditions: Huh-7 cells, 10 μM
Method: (§3) Total RNA was isolated from cells or tissues with RNAiso Plus Reagent (TaKaRa, 9108). SuperScript Ⅲ reverse transcriptase (Invitrogen,18080093) was employed to synthesize first-strand cDNA. Real-time PCR was performed in an ABI Step One Real-time Detection System (Life Technologies) using SYBR Green (Takara, RR420A). The primer sequences are listed in supplementary Table 2.

Hep3B cells = assay: Proliferation of HCC cells; assay type: cell-based
SOX9^KO Huh-7 cells = assay: Proliferation of SOX9KO Huh-7 cells; assay type: cell-based; conditions: SOX9^KO Huh-7 cells treated with Pep-peptides
Huh-7 xenograft = assay: Huh-7 subcutaneous xenograft model; assay type: in vivo, BALB/c nude mice
Method: (§4) Huh-7 cells (1×106) or Huh-7 cells infected with different viruses were injected subcutaneously into the right flank of male athymic BALB/c nude mice (5 weeks old). Tumor volumes were measured and analyzed using the equation: volume = π/6×length×(width)2.Once the average tumor volume reached approximately 60 mm3, the mice were randomly divided into five groups (eight mice per group) and treated with intratumorally injections of Pep-S-A1, Pep-D125A, or saline twice weekly. For the orthotopic HCC model, 1×10^6 Huh-7 cells expressing luciferase were injected subcutaneously into the right flank of BALB/c nude mice to establish tumor xenografts. The tumor nodules derived from xenograft model and then were divided into 1 mm3 pieces and subsequently implanted into the left lobe of the livers of 5-week-old male BALB/c nude mice to mimic primary HCC. The mice were randomly separated into two groups (eight animals per group) according to the bioluminescence 3 days after implantation. Pep-S-A1 or Pep-D125A was then injected via the tail vein every 5 days. The mice were regularly monitored using a luminal imaging system (Caliper) once each week and killed 2 weeks post tumor fragments transplanted.

[4] = test system: luciferase-expressing Huh-7 tumors; assay: Orthotopic HCC model; assay type: in vivo, BALB/c nude mice; conditions: 2-week delivery
Method: as §4

HCC cells = assay: Proliferation of Huh-7 / HCC cells; assay type: cell-based
SOX9-HMG domain = target: T2, SOX9-HMG domain (Homo sapiens, UniProt P48436); assay: MST binding to SOX9-HMG domain; conditions: 50 mM Tris-HCl pH 7.4, 150 mM NaCl, 0.05% Tween-20, effect of R124K mutation on YAP peptide (aa 115–135)
T2 construct: made in house; host or cells: Escherichia coli
T2 sequence (P48436 98-181): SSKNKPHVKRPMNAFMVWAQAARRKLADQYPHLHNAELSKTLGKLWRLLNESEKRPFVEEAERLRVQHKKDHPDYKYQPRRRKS
Method: (§5) His-tagged YAP and the SOX9-HMG domain purified from Escherichia coli were labeled with 25 nM RED-tris-NTA 2nd Generation dye at room temperature for 10 min. Then, the labeled protein was incubated with a serially diluted peptide or protein for 10 min at room temperature. MST buffer containing 50 mM Tris-HCl [pH 7.4], 150 mM NaCl, and 0.05% Tween-20 was used in all measurements. The solution was centrifuged for 10 min at 4 °C and 15,000 g, and the supernatant was transferred to a fresh tube. The sample was loaded into the capillaries and measured at 40% LED/excitation power and medium MST power. The KD was determined in MO. Affinity Analysis using the KD fit.

YAP [5] = target: T1, YAP; assay: MST binding to YAP protein; set-up: made in house; host or cells: Escherichia coli; conditions: 50 mM Tris-HCl pH 7.4, 150 mM NaCl, 0.05% Tween-20, effect of D125A mutation on S-A1 binding
Method: as §5

YAP-R124me2a = YAP-R124me2a level in cells (immunoblot); assay type: cell-based; conditions: Huh-7 cells co-transfected with V5-YAP and siPRMT1
Method: as §2

Huh-7 cells = assay: TEAD activity and oncogenic properties of Huh-7 cells; assay type: cell-based; conditions: Huh-7 cells treated with Lenti-YAP and siPrmt1 simultaneously
PLC cells = assay: YAP-induced gene expression and malignant features of PLC cells; assay type: cell-based; conditions: PLC cells infected with lenti-YAP; siRNA 20 nmol/L
Method: as §3

YAP-TEAD interaction = conditions: cited from earlier work
Source text: (§6) The formation of YAP-partner complexes under certain pathological conditions makes YAP an ideal drug target.[44]–[46] […] In light of this, impeding ...

ovarian cancer = conditions: cited from earlier work
Source text: as §6

T1 sequence (P46937 whole entry): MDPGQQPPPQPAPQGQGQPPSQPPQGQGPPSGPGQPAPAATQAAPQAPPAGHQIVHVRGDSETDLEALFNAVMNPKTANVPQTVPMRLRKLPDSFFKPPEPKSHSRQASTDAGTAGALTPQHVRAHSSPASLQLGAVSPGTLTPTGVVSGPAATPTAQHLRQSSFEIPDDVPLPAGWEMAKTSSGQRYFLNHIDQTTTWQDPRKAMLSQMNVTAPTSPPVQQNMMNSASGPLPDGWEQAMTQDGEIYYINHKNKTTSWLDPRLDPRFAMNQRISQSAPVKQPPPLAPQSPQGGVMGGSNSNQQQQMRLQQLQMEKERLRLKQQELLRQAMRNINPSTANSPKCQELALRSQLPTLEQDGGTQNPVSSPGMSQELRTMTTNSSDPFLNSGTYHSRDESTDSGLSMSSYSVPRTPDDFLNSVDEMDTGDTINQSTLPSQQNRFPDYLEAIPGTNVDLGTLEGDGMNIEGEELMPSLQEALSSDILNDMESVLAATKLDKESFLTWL

Compound: Clc1ccc(C(c2ccc(Cl)cc2)n2cc[n+](CC(OCc3ccc(Cl)cc3Cl)c3ccc(Cl)cc3Cl)c2)cc1 (centres unmarked) [CDZ, calmidazolium chloride]
nuclear translocation of YAP (YAP [1]; CDZ 5 nM, 24 h, Huh-7 cells transfected with V5-YAP, fractionation and immunoblot): significantly inhibited nuclear translocation of YAP | transactivation of the YAP-TEAD reporter (YAP-TEAD; CDZ 5 nM, 24 h, Huh-7 cells overexpressing YAP or YAP^S127A, 8×GTIIC reporter): significantly inhibited nuclear translocation of YAP and the transactivation of the YAP-TEAD reporter | nuclear level of SOX9 (SOX9): decreased the nuclear level of SOX9

Compound: CC(C)Oc1ccc(-c2c[nH]cc2CN(C)CCN)cc1 [MS023]
nuclear transport of YAP (YAP [1]; fractionation and immunoblot): remarkedly blocked the nuclear transport of YAP in HCC cells

nuclear YAP levels (YAP [1]; Huh-7 cells, live cell-imaging): reduced nuclear YAP levels | YAP-TEAD activity (YAP-TEAD; Huh-7 cells, 8×GTIIC reporter, 10 μM): suppressed YAP-TEAD activity
Compound: Pep-S-A1: S-A1 linked to a cell-penetrating peptide (Pep) via a di-glycine linker (HLYVSPWGGAFMVWAQAARRKLADQ)
disruption of YAP-SOX9 interaction (Co-IP) (YAP-SOX9 interaction [2]; HCC cells (Huh-7), peptides at indicated concentrations for 24 h): disrupted the YAP-SOX9 interaction in HCC cells in a dose-dependent manner | disruption of YAP-SOX9 interaction (PLA) (YAP-SOX9 interaction [3]): disrupted the YAP-SOX9 interaction in HCC cells in a dose-dependent manner | YAP-target gene expression (CTGF, CYR61 and AREG): inhibited YAP-target gene expression | proliferation of Hep3B cells (Hep3B cells): inhibited the proliferation of Hep3B cells | proliferation of SOX9KO Huh-7 cells (SOX9^KO Huh-7 cells): had no effect on SOX9^KO Huh-7 cells | YAP nuclear staining in tumor tissues (Huh-7 xenograft; Huh-7 xenograft, IHC, 8 mg/kg): reduced YAP nuclear staining | downstream gene transcription in tumor tissues (Huh-7 xenograft; Huh-7 xenograft, qPCR of CTGF, CYR61 and AREG): reduced YAP nuclear staining and downstream gene transcription in the tumor tissues | tumor growth (Huh-7 subcutaneous xenograft) (Huh-7 xenograft; nude mice, intratumoral injection, twice weekly (day 1 and day 4), eight mice per group): dose-dependently suppressed tumor growth | YAP nuclear aggregation in tumor tissues ([4]; orthotopic HCC, IHC, tail vein every 5 days): notably inhibited YAP nuclear aggregation | downstream gene expression in tumor tissues ([4]; orthotopic HCC, qPCR of CTGF, CYR61 and AREG): notably inhibited YAP nuclear aggregation and downstream gene expression in the tumor tissues | emitted bioluminescence ([4]; orthotopic HCC, tail vein every 5 days, compared with Pep-D125A, eight animals per group): significantly reduced the emitted bioluminescence | tumor growth (orthotopic HCC) ([4]; tail vein every 5 days, compared with Pep-D125A, eight animals per group): significantly reduced the emitted bioluminescence and tumor growth compared with Pep-D125A | HCC cell proliferation (HCC cells): inhibited HCC cell proliferation

binding to SOX9-HMG (MST) (SOX9-HMG domain): abolished
Compound: R124K: YAP peptide (aa 115–135) with R124K mutation (AGALTPQHVKAHSSPASLQLG; UniProt P46937 115-135, looked up, variant R124K)

binding to YAP (MST) (YAP [5]): abolished this binding
Compound: S-A1-D125A: S-A1 peptide with D125A mutation (AFMVWAQAARRKLAAQ)

Compound: siPRMT1: siRNA GAGUUCACACGCUGCCACAtt (guide GAGUUCACACGCUGCCACATT; chemistry not given here)
YAP-SOX9 interaction (YAP-SOX9 interaction [2]; Huh-7 cells co-transfected with V5-YAP and siPRMT1): reduced YAP-SOX9 interaction | nuclear transport of YAP (YAP [1]; fractionation and immunoblot): remarkedly blocked the nuclear transport of YAP in HCC cells | YAP activity (8×GTIIC reporter) (YAP-TEAD; Huh-7 cells transfected with siPRMT1): decreased YAP activity | YAP-R124me2a level (YAP-R124me2a): decreased the YAP-R124me2a level | TEAD activity and oncogenic properties triggered by YAP (Huh-7 cells): significantly reversed the elevated TEAD activity and oncogenic properties of Huh-7 cells triggered by YAP

Compound: siSOX9: siRNA CCACCUUCACCUACAUGAAtt (guide CCACCUUCACCUACAUGAATT; chemistry not given here)
YAP-induced gene expression and malignant features (PLC cells): notably attenuate the YAP-induced gene expression and malignant features of PLC cells

Compound: verteporfin
YAP-TEAD interaction (YAP-TEAD interaction): blocked the YAP-TEAD interaction | ovarian cancer growth in mice (ovarian cancer): suppressed ovarian cancer growth in mice

Reference: article PMC11039692, “SRY-Box transcription factor 9 triggers YAP nuclear entry via direct interaction in tumors” (Signal Transduction and Targeted Therapy, 2024)
